Experimental data reported in patent EP2965760A1, “Combination of antiretroviral agents for use in the prevention or treatment of chronic inflammatory diseases” (Université de Montpellier, priority 2014, dated 2016).
Entries after “also recorded” stand apart in the source; their conditions may differ.

Legend:
SCC12B2 cell line = test: Organotypic 3D reconstructed skin culture, cell differentiation (marker staining); assay type: cell-based, human; conditions: SCC12B2-derived 3D reconstructed skin; for effect on cell differentiation (staining for psoriasine and cytokeratin 10): 100 µM for 21 days, immunofluorescence; for effect on cell differentiation: result in words
endogenous RT activities = test: Endogenous reverse transcriptase activity in extracts of ARV-treated 3D reconstructed skin (colorimetric Mn2+ and Mg2+ RT kit); assay type: cell-based, human; conditions: Mn2+ and Mg2+ dependent; reconstructed skin from SCC12F2, SCC12B2 and primary keratinocytes; result in words
From the text: Endogenous RT activities are increased in the psoriatic lesion when compared to non lesional psoriatic skin or normal skin extracts. […] The origin and the nature of these proteins are unknown but considering that the disease is not transmissible horizontally they should be attributed to endogenous proteins. In fact several cellular proteins including telomerase, LINE ORF2 and RT from human endogenous retroviruses (HERV) harbour a reverse transcriptase activity. LINE ORF2 is a Mg^2+-dependent RT, like RTs of the HERVs belonging to the MMTV-like group. The MLV-like HERV group harbours a Mn^2+-dependent RT. Effects of ARV on these activities was assessed in 3D culture models: Various reconstructed skin were assessed for RT inhibition through RTI treatment. They were generated from SSC12F2 and SCC12B2 cell lines and from normal primary keratinocytes (KN).
Reverse transcriptase assay : Protein extracts were prepared by crushing the cryostat skin sections (100 µm) in liquid nitrogen, incubating in ice-cold lysis buffer (10 mM Tris-HCl pH 7.5, 1 mM MgCl2, 1 mM EDTA, 0.1 mM PMSF, 5 mM β-mercaptoethanol, 0.5 % CHAPS, 10 % glycerol, 1 % NP40) and then subjected to three freeze/thaw cycles (LN2/4°C). […] RT activities were quantified with colorimetric highly sensitive Mn^2+ and Mg^2+ RT kit (Cavidi, Uppsala, Sweden) according to the manufacturer's instructions. […]

keratinocytes [1] = test: IL-6 secretion by keratinocytes upon RT induction, time course (protocol of figure 5); assay type: cell-based; conditions: ARV after demethylating treatment; result in words
Experimental: (§1) • Figures 1A-C represent the expression of cytokeratin 10 on SCC12B2-derived 3D reconstructed skin detected by immunohistochemistry. • Figure 1A represents untreated SCC12B2-derived 3D reconstructed skin. • Figure 1B represents SCC12B2-derived 3D reconstructed skin treated by AZT (100 µM) for 21 days: • Figure 1C: represents SCC12B2-derived 3D reconstructed skin treated by efavirenz (100 µM) for 21 days. Arrow indicates cytokeratin 10 expression. • Figures 2A-D represent the expression of psoriasine on SCC12B2-derived 3D reconstructed skin detected by immunofluorescence. • Figure 2A represents untreated SCC12B2-derived 3D reconstructed skin. • Figure 2B represents SCC12B2-derived 3D reconstructed skin treated by AZT (100 µM) for 21 days: • Figure 2C represents SCC12B2-derived 3D reconstructed skin treated by Lamivudine (100 µM) for 21 days. • Figure 2D represents SCC12B2-derived 3D reconstructed skin treated by AZT (100 µM) and Lamivudine (100 µM) for 21 days. […]

keratinocytes [2] = test: IL-6 production by keratinocytes, ARVs given concomitantly with stimulation of RT activity; assay type: cell-based; conditions: ARV concomitant with treatment that stimulated RT activity; result in words
Experimental: as §1

keratinocytes [3] = test: Cytokine production by keratinocytes after demethylating treatment (protocol of figure 5, Day 7); assay type: cell-based; conditions: after demethylation treatment
Experimental: • Figures 1A-C represent the expression of cytokeratin 10 on SCC12B2-derived 3D reconstructed skin detected by immunohistochemistry. • Figure 1A represents untreated SCC12B2-derived 3D reconstructed skin. • Figure 1B represents SCC12B2-derived 3D reconstructed skin treated by AZT (100 µM) for 21 days: • Figure 1C: represents SCC12B2-derived 3D reconstructed skin treated by efavirenz (100 µM) for 21 days. Arrow indicates cytokeratin 10 expression. • Figures 2A-D represent the expression of psoriasine on SCC12B2-derived 3D reconstructed skin detected by immunofluorescence. • Figure 2A represents untreated SCC12B2-derived 3D reconstructed skin. • Figure 2B represents SCC12B2-derived 3D reconstructed skin treated by AZT (100 µM) for 21 days: • Figure 2C represents SCC12B2-derived 3D reconstructed skin treated by Lamivudine (100 µM) for 21 days. • Figure 2D represents SCC12B2-derived 3D reconstructed skin treated by AZT (100 µM) and Lamivudine (100 µM) for 21 days. White staining denoted psoriasine expression. • Figures 3A-D represent the expression of cytokeratin 10 on SCC12B2-derived 3D reconstructed skin detected by immunofluorescence. • Figure 3A. represents untreated SCC12B2-derived 3D reconstructed skin. • Figure 3B represents SCC12B2-derived 3D reconstructed skin treated by AZT (100 µM) for 21 days: • Figure 3C represents SCC12B2-derived 3D reconstructed skin treated by lamividune (100 µM) for 21 days; • Figure 3D represents SCC12B2-derived 3D reconstructed skin treated with a combination of AZT (100 µM) and lamivudine (100 µM). White staining denoted cytokeratin 10 expression. • Figure 4 represents a histogram showing the level of endogenous RT activity in 3D reconstructed skin from various cell lines: PC F2 (A), PC B2 (B) or PC KN (C). PC F2 were obtained from the SCC12F2 cell line; PC B2 from the SCC12B2 cell line and PC KN from primary cultured human keratinocytes. Treatment were either azidothymidine (AZT; 2.) or efavirenz (3.) compared to the control (untreated; 1.). • Figure 5 represents a fow chart of the different treatments that aim at mimicking the initiating events of the psoriatic lesions • Figure 6 represents a histogram showing the level of the indicated cytokine production by keratinocytes at Day 7 of the protocol described in figure 5. Data were normalized versus control condition (fold increase in arbitrary unit). 1: IL-17 A; 2: IFN-γ; 3: TNF-α, 4: IL-1 RA and 5: IP-10. White columns represent the expression level in control cells. Black columns represent the expression level in cells treated with deoxyuridine, Grey columns represent the expression level in cells treated with desoxyuridine and Eviplera®. Hatched columns represent the expression level in cells treated with desoxyuridine and rilpivirine. Columns with dots represent the expression level in cells treated with desoxyuridine and efavirenz. • Figure 7 represents a graph showing time course (D0: Day 0; D2: Day 2; D5: Day 5; D7: Day 7) of the level of IL-6 production (fold increase) by keratinocytes according to the protocol described in figure 5. The expression is normalized to control at the corresponding time point. Diamond shape = untreated cells; Filled square = demethylating treated cells; Open square = treated with AZT; Filled circle = treated with lamivudine; Open circle = treated with Eviplera®. • Figure 8 represents a graph showing effects of ARVs upon simultaneous stimulation of RT activities on the production of IL-6 by keratinocytes. Values are normalized versus control. Filled diamond shape = control; Filled square = treated with demethylating agent; Triangle = treated with demethylating agent + Eviplera®; open diamond shape = treated with demethylating agent + lamivudine; Open circle = treated with demethylating agent + AZT; Filled circle = treated with demethylating agent + AZT + Lamivudine. […]

| Compound | effect on cell differentiation (staining for psoriasine and cytokeratin 10) (SCC12B2 cell line) | effect on cell differentiation (SCC12B2 cell line) | endogenous RT activities (endogenous RT activities) | effect on the synthesis of IL-6 (keratinocytes [1]) | effect on the synthesis of IL-6 (keratinocytes [2]) | IFN-α expression decreased (keratinocytes [3]) | IP10 expression decreased (keratinocytes [3]) | other results |
| --- | --- | --- | --- | --- | --- | --- | --- | --- |
| Cc1cn([C@H]2C[C@H](N=[N+]=[N-])[C@@H](CO)O2)c(=O)[nH]c1=O [AZT, Zidovudine] | Neither AZT, nor lamivudine has effect | no effect; also recorded: no or minor effects | less effective | neither AZT nor lamivudine have effect | no effect | – | – | – |
| O=C1Nc2ccc(Cl)cc2[C@@](C#CC2CC2)(C(F)(F)F)O1 [Efavirenz] | – | reverses the "tumoral" phenotype of SCC12B2 cell line | decreased endogenous RT activities of both type | – | – | more than 50% | more than 50% | effect on cell differentiation (SCC12B2 cell line; listed as efavirenz): impact cell differentiation; IL17A expression (keratinocytes [3]): undetectable; TNF-α production (keratinocytes [3]): potent induction |
| Cc1cc(C#N)cc(C)c1Oc1nc(Nc2ccc(C#N)cc2)nc(N)c1Br [Etravirine] | – | no or minor effects | – | – | – | – | – | – |
| Cc1cc(/C=C/C#N)cc(C)c1Nc1ccnc(Nc2ccc(C#N)cc2)n1 [Rilpivirine] | – | – | – | – | – | more than 50% | more than 50% | – |
| C[C@H](Cn1cnc2c(N)ncnc21)OCP(=O)(O)O [Tenofovir] | – | impact cell differentiation | – | – | – | – | – | – |
| Nc1ccn([C@H]2CS[C@@H](CO)O2)c(=O)n1 [lamivudine, 2',3'-dideoxy-3'-thiacytidine] | Neither AZT, nor lamivudine has effect | – | – | neither AZT nor lamivudine have effect | no effect | – | – | – |
